# From patent publication US6918445B2, “Methods and compositions for treating subterranean zones using environmentally safe polymer breakers” (Halliburton Energy Services, Inc., priority 2003, dated 2005)
# Assay: Sodium perborate tetrahydrate solubility tests in fresh water
# Assay type: physicochemical
# Conditions: density 8.33 pounds per gallon, 75° F., with mixing; for Amount Dissolved (solubility of sodium perborate tetrahydrate in water): 10% by weight of water was a pass/fail target, not the maximum solubility
# Protocol: Sodium perborate tetrahydrate solubility tests in fresh water having a density of 8.33 pounds per gallon were conducted. […] The sodium borate tetrahydrate-complex or ester forming compound mixtures all contained a molar ratio of sodium perborate tetrahydrate to the complex or ester forming compound of 1:2, and the mixtures were added to the water in amounts whereby the sodium perborate tetrahydrate was present in an amount of 10% by weight of the water.
smiles,measurement,setting,value
O.O.O.O.[Na+].[O-]B1OO1 [Sodium Perborate Tetrahydrate],Amount Dissolved (solubility of sodium perborate tetrahydrate in water),,2.5% by weight of water
same,Amount Dissolved (solubility of sodium perborate tetrahydrate in water),listed as sodium perborate tetrahydrate,2.5 % by weight of water
same,Time Required,time to dissolve the stated amount,<15 min
